Our source for the TGI and GI50 values is PubChem BioAssay (NCI).

Test systems include OVCAR-4 ovarian; HS 578T breast; DU-145 prostate; BT-549 breast; HOP-62 NSCLC; KM12 colon; MOLT-4 leukemia; MCF7 breast; UACC-62 melanoma; CAKI-1 renal.
What all share (assay): DTP human tumour cell line panel, 48 h

As a reminder, the TGI is the concentration at which net growth stops. The low end stands for more potent growth arrest, the high end for less potent growth arrest. As a reminder, the GI50 is the concentration at which growth is held to half of that of the control.

“And” between values parts separate entries of the source, which are not always exact repeats. Equal values may be shown once.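 Results reflect a 48-hour exposure of cells in 96-well plates to compound at five concentrations. GI50: concentration for 50% inhibition of growth. Definition used: TGI = concentration required for complete inhibition of growth.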

For the molecule `CC(C)=CCC/C(C)=C/COC(C)(C)C1=CCC(C)CC1` (configuration not stated) (tested in a mixture with another compound), the total growth inhibition concentration (TGI) in the assay on OVCAR-4 ovarian, with HS 578T breast, in the assay with DU-145 prostate, in the assay with BT-549 breast, in the assay with HOP-62 NSCLC and in the assay on KM12 colon was greater than 100 µM each time. The TGI in the assay on MOLT-4 leukemia is 36.2 µM; in the assay with MCF7 breast, greater than 100 µM; in the assay with UACC-62 melanoma, greater than 100 µM; in the assay on CAKI-1 renal it was greater than 100 µM.
Consider `CC(=O)c1cccn1/C=C(\OC(=O)OC(C)(C)C)c1ccc[nH]1`, for which the total growth inhibition concentration (TGI) in the assay on OVCAR-4 ovarian, in the assay on HS 578T breast, in the assay with DU-145 prostate, in the assay with BT-549 breast, in the assay on HOP-62 NSCLC and with KM12 colon was greater than 100 µM each time. For the same molecule, the total growth inhibition concentration (TGI) with MOLT-4 leukemia was greater than 100 µM; in the assay on MCF7 breast, greater than 100 µM; in the assay on UACC-62 melanoma, greater than 100 µM; with CAKI-1 renal, 91.2 µM.
In the case of `Oc1[nH]c2ccc(Br)cc2c1N=NC(=S)Nc1ccc(F)cc1`, the TGI came out at 25.7 µM in the assay with OVCAR-4 ovarian; 63.6 µM in the assay with HS 578T breast; 22.3 µM in the assay on DU-145 prostate; 2.7 µM with BT-549 breast; 60.5 µM in the assay on HOP-62 NSCLC; 30.5 µM in the assay on KM12 colon. The TGI worked out at 29.6 µM in the assay on MOLT-4 leukemia, 24.7 µM with MCF7 breast, 13.8 µM in the assay with UACC-62 melanoma and 19.3 µM in the assay on CAKI-1 renal.
Take `CNc1ncnc2c1cnn2COCC(O)CO` (configuration not stated): the TGI in the assay on OVCAR-4 ovarian, in the assay with HS 578T breast, with DU-145 prostate, with BT-549 breast, in the assay on HOP-62 NSCLC and in the assay with KM12 colon was greater than 100 µM throughout. The total growth inhibition concentration (TGI) in the assay with MOLT-4 leukemia, with MCF7 breast, in the assay on UACC-62 melanoma and in the assay on CAKI-1 renal was greater than 100 µM each time.
In the case of `C=CCNC(=S)N=Nc1c(O)[nH]c2ccc([N+](=O)[O-])cc12`, the concentration for total growth inhibition (TGI) in the assay on OVCAR-4 ovarian, in the assay with HS 578T breast, in the assay on DU-145 prostate, in the assay on BT-549 breast, with HOP-62 NSCLC and in the assay on KM12 colon was greater than 100 µM in each case. In addition, the TGI in the assay on MOLT-4 leukemia, in the assay on MCF7 breast, with UACC-62 melanoma and in the assay with CAKI-1 renal was greater than 100 µM throughout.
In the case of `COC(C)(C)[C@@H](O)[C@H]1C[C@H](C)[C@@]2(CC[C@]3(C)[C@@H]2CC[C@@H]2[C@@]4(C)CC[C@@H](OC(C)=O)C(C)(C)[C@@H]4C[C@@H](OC4OC(COC(C)=O)C(O)C(O)C4O)[C@]23C)O1` (some centres not stated), the total growth inhibition concentration (TGI) in the assay on OVCAR-4 ovarian is 14.4 µM; in the assay with HS 578T breast, 23.7 µM; in the assay on DU-145 prostate, 15.7 µM; in the assay on BT-549 breast, 15.2 µM; with HOP-62 NSCLC it was 25 µM; in the assay on KM12 colon it was 3.62 µM. The TGI came out at 10.7 µM in the assay on MOLT-4 leukemia, 8.92 µM with MCF7 breast, 18.6 µM in the assay on UACC-62 melanoma and 24.1 µM with CAKI-1 renal.
Regarding `O=C(Oc1cc(=O)c(OC(=O)c2ccccc2)co1)c1ccccc1`, the TGI in the assay with OVCAR-4 ovarian, with HS 578T breast, with DU-145 prostate, in the assay with BT-549 breast, in the assay with HOP-62 NSCLC and with KM12 colon was greater than 100 µM throughout. In addition, the concentration for total growth inhibition (TGI) in the assay on MOLT-4 leukemia, in the assay with MCF7 breast, with UACC-62 melanoma and with CAKI-1 renal was greater than 100 µM in each case.
Consider `Cc1cn(-c2cc(C(=O)Nc3cccc(-n4ccc5c(NC(=O)c6ccccc6)nccc54)c3)cc(C(F)(F)F)c2)cn1`, for which the GI50 in the assay on OVCAR-4 ovarian was 1.17 µM; with HS 578T breast, 0.252 µM; with DU-145 prostate, 0.525 µM; in the assay on BT-549 breast, 0.72 µM; in the assay with HOP-62 NSCLC, 0.628 µM; in the assay with KM12 colon, 0.372 µM. Moreover, the GI50 in the assay with MOLT-4 leukemia was 0.531 µM; in the assay on MCF7 breast it was 0.361 µM; with UACC-62 melanoma it was 0.366 µM; in the assay with CAKI-1 renal, 0.52 µM. The TGI with OVCAR-4 ovarian stood at 18 µM; in the assay on HS 578T breast, 1.73 µM; with DU-145 prostate, 2.2 µM; with BT-549 breast it was 10 µM; in the assay with HOP-62 NSCLC, 15.3 µM; in the assay with KM12 colon, 1.46 µM. The total growth inhibition concentration (TGI) in the assay with MOLT-4 leukemia turned out to be 10.6 µM; in the assay on MCF7 breast it was 2.39 µM; in the assay on UACC-62 melanoma, 12.7 µM; in the assay with CAKI-1 renal, 2.99 µM.
In the case of `CC(=O)O[C@H]1C(=O)[C@@]2(C)[C@H]([C@H](OC(=O)c3ccc(F)cc3)[C@]3(O)C[C@H](OC(=O)[C@H](O)[C@@H](NC(=O)c4ccccc4)c4ccccc4)C(C)=C1C3(C)C)[C@]1(OC(C)=O)CO[C@@H]1C[C@@H]2O`, the total growth inhibition concentration (TGI) in the assay with OVCAR-4 ovarian is greater than 25 µM; in the assay with HS 578T breast, 0.0559 µM; in the assay on DU-145 prostate, 2.31 µM; in the assay with BT-549 breast, greater than 25 µM; in the assay with HOP-62 NSCLC it was greater than 25 µM; in the assay with KM12 colon, greater than 25 µM. Moreover, the concentration for total growth inhibition (TGI) with MOLT-4 leukemia was 2.6 µM; in the assay with MCF7 breast, greater than 25 µM; with UACC-62 melanoma, greater than 25 µM; in the assay on CAKI-1 renal, greater than 25 µM.
As to `Clc1ccc(CSCCc2ccncc2)cc1Cl`, the TGI with OVCAR-4 ovarian was 98.7 µM; with HS 578T breast, 53.8 µM; in the assay on DU-145 prostate, greater than 100 µM; with BT-549 breast it was 42.6 µM; in the assay with HOP-62 NSCLC, 50.2 µM; with KM12 colon, 50.9 µM. Besides, the TGI in the assay on MOLT-4 leukemia was 38.1 µM; with MCF7 breast, 35.7 µM; with UACC-62 melanoma it was 29.6 µM; in the assay with CAKI-1 renal it was greater than 100 µM.
Regarding `COc1nc2ncc([C@@H](OC(C)=O)[C@@H](COC(C)=O)OC(C)=O)nc2c(=O)[nH]1`, the concentration for total growth inhibition (TGI) in the assay on OVCAR-4 ovarian, with HS 578T breast, with DU-145 prostate, in the assay on BT-549 breast, in the assay with HOP-62 NSCLC and in the assay with KM12 colon was greater than 100 µM each time. Further, the total growth inhibition concentration (TGI) in the assay on MOLT-4 leukemia, in the assay with MCF7 breast, with UACC-62 melanoma and in the assay on CAKI-1 renal was greater than 100 µM in each case. Also, the GI50 with MOLT-4 leukemia was > 100 µM and 49.9 µM.
As for `ClC(Cl)=C1C(=C(Cl)Cl)C(Cl)(Cl)C1(Cl)Cl`, the total growth inhibition concentration (TGI) with OVCAR-4 ovarian worked out at 16 µM; in the assay with HS 578T breast, 10.4 µM; in the assay with DU-145 prostate, 23.4 µM; in the assay on BT-549 breast, 13.4 µM; in the assay on HOP-62 NSCLC, 22.1 µM; with KM12 colon, 18.4 µM. The total growth inhibition concentration (TGI) in the assay with MOLT-4 leukemia was 0.715 µM and 2 µM; with MCF7 breast, 19.2 µM; in the assay with UACC-62 melanoma, 5.36 µM; in the assay on CAKI-1 renal, 8.14 µM. In addition, the GI50 in the assay with MOLT-4 leukemia is 0.278 µM.
